From patent US8188135B2, “Compounds as cannabinoid receptor ligands” (priority 2008, dated 2012)
Like-named read-outs stand apart in the source and are kept apart here.

Legend:
human CB2 receptors = target: T1, human CB2 receptors (Homo sapiens, UniProt P34972); experiment: human CB2 radioligand binding assay ([3H]CP 55,940 competition); conditions: HEK293 membranes, 0.5 nM [3H]CP 55,940
T1 construct: expressed in transfected cells; host or cells: HEK293
Procedure, shortened: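 Membranes from HEK293 cells stably expressing human CB2 (5 μg protein/well) competed against 0.5 nM [3H]CP 55,940 with five concentrations of test ligand (0.01 nM to 10 μM), pH 7.4 Tris buffer with BSA, 90 min at 30 °C. Filtration and scintillation counting; nonspecific binding with 10 μM unlabeled CP 55,940.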

Rat CB1 = target: T2, Rat CB1 (Rattus norvegicus, UniProt P20272); experiment: rat CB1 cyclase functional assay (HitHunter cAMP); type: cell-based; conditions: HEK cells, forskolin 37 μM
T2 construct: expressed in transfected cells; host or cells: HEK
Procedure: (§1) The cyclase functional assays were performed using the HitHunter™ cAMP assay kit from DiscoveRx (Fremont, Calif.) according to vendor's protocol. Briefly, HEK cells expressing CB2 or CB1 receptors (rat or human) were detached using cell dissociation buffer (Invitrogen, Carlsbad, Calif.), dispersed and placed in suspension at 10,000 cells per well in 96 well plates prior to the assay. Cell suspensions were incubated at 37° C. for 20 min with variable concentrations of test ligands and or 10 μM CP 55,940-positive control in the presence of a fixed concentration of forskolin (18 μM for rat CB2 and 37 μM for rat CB1) in Dulbescco's phosphate-buffered saline (Invitrogen, Carlsbad, Calif.) supplemented with bovine serum albumin (0.01% final concentration). The reactions were terminated by the addition of lysis buffer and the luminescence was detected following the procedure according to the manufacturer's instructions. EC50 values were calculated using sigmoidal dose-response curve fitting from Prism (GraphPad).

rat CB2 [1] = target: T3, rat CB2 (Rattus norvegicus, UniProt Q9QZN9); experiment: rat CB2 cyclase functional assay (HitHunter cAMP); type: cell-based; set-up: expressed in transfected cells; host or cells: HEK; conditions: HEK cells, forskolin 18 μM
T3 sequence (Q9QZN9 1-360): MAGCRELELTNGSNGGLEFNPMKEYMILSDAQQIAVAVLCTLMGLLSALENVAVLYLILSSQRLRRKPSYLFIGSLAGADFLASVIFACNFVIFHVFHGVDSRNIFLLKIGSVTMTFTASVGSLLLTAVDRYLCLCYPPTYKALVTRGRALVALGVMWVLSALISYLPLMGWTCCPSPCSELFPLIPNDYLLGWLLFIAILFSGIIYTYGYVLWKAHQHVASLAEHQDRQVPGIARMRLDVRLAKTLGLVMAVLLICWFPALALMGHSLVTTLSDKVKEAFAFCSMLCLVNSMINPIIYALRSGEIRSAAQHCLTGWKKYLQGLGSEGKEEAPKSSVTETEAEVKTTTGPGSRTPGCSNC
Procedure: as §1

rat CB2 [2] = target: T3, rat CB2; experiment: rat CB2 radioligand binding assay ([3H]CP 55,940 competition); set-up: expressed in transfected cells; host or cells: HEK293; conditions: HEK293 membranes, 0.5 nM [3H]CP 55,940
Procedure, shortened: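 Membranes (20 μg protein/well) from HEK293 cells stably expressing the receptor were incubated 45 min at 30 °C with 0.5 nM [3H]CP 55,940 and five concentrations of test compound (0.01 nM–10 μM) in Tris/EDTA/MgCl2/BSA buffer, pH 7.4. Bound ligand was measured by GF/C filtration and scintillation counting; 10 μM CP 55,940 defined nonspecific binding.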

T2 sequence (P20272 whole entry): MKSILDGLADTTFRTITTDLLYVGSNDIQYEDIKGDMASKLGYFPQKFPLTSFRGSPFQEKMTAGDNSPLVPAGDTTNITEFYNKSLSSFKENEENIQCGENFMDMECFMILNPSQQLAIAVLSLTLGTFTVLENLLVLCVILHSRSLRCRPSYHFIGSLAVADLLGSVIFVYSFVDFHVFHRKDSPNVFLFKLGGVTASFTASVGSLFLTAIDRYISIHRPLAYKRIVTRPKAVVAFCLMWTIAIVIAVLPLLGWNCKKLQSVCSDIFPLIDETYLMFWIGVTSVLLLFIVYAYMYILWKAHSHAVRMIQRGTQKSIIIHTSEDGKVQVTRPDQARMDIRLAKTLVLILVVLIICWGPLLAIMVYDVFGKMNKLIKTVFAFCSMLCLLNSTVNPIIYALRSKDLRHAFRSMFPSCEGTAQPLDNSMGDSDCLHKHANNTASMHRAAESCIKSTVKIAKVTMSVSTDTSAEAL
T1 sequence (P34972 whole entry): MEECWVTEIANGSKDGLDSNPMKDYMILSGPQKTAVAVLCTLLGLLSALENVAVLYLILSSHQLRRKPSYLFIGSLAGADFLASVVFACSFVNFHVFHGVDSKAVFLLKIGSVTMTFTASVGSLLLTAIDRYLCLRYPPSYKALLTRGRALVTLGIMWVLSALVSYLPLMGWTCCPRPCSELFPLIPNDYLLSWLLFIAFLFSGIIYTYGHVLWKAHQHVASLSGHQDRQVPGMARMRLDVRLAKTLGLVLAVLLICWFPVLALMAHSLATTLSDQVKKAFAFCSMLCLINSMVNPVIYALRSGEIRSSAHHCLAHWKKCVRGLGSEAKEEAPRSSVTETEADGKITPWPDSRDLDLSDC

| Structure (SMILES) | Ki (human CB2 receptors; human CB2 (Ki, nM)) | EC50 (Rat CB1; Rat CB1 cyclase (EC50, nM)) | EC50 (rat CB2 [1]; rat CB2 cyclase (EC50, nM)) | Ki (rat CB2 [2]; rat CB2 (Ki, nM)) | Ki (human CB2 receptors; read-out: human CB2 (Ki)) | EC50 (Rat CB1; read-out: Rat CB1 cyclase (EC50)) | EC50 (rat CB2 [1]; read-out: rat CB2 cyclase (EC50)) | Ki (rat CB2 [2]; read-out: rat CB2 (Ki)) |
| --- | --- | --- | --- | --- | --- | --- | --- | --- |
| Cn1c(C(C)(C)C)c/c(=N\C(=O)c2cc(C(F)(F)F)ccc2OCCNS(C)(=O)=O)n1C[C@H]1CCCO1 [Example 45, N-{(3E)-5-tert-butyl-1-methyl-2-[(2R)-tetrahydrofuran-2-ylmethyl]-1,2-dihydro-3H-pyrazol-3-ylidene}-2-{2-[(methylsulfonyl)amino]ethoxy}-5-(trifluoromethyl)benzamide] | 19 nM | 4940 nM | 0.47 nM | 7.8 nM | – | – | – | – |
| CCOCCOCCOc1ccc(C(F)(F)F)cc1C(=O)/N=c1\cc(C(C)(C)C)n(C)n1C[C@H]1CCCO1 [Example 47, N-{(3E)-5-tert-butyl-1-methyl-2-[(2R)-tetrahydrofuran-2-ylmethyl]-1,2-dihydro-3H-pyrazol-3-ylidene}-2-[2-(2-ethoxyethoxy)ethoxy]-5-(trifluoromethyl)benzamide] | 70 nM | > 27000 nM | 5.6 nM | 89 nM | – | – | – | – |
| Cn1c(C(C)(C)C)c/c(=N\C(=O)c2cc(C(F)(F)F)ccc2OCCNS(=O)(=O)C2CC2)n1C[C@H]1CCCO1 [Example 49, N-{(3E)-5-tert-butyl-1-methyl-2-[(2R)-tetrahydrofuran-2-ylmethyl]-1,2-dihydro-3H-pyrazol-3-ylidene}-2-{2-[(cyclopropylsulfonyl)amino]ethoxy}-5-(trifluoromethyl)benzamide] | 13 nM | 4190 nM | 0.12 nM | 2.7 nM | – | – | – | – |
| CCS(=O)(=O)NCCOc1ccc(C(F)(F)F)cc1C(=O)/N=c1\cc(C(C)(C)C)n(C)n1C[C@H]1CCCO1 [Example 50] | 21 nM | 1180 nM | 0.12 nM | 8.5 nM | – | – | – | – |
| Cn1c(C(C)(C)C)c/c(=N\C(=O)c2cc(C(F)(F)F)ccc2OC[C@@H]2CCC(C)(C)O2)n1C[C@H]1CCCO1 [Example 52] | – | – | – | – | 10 nM | > 27000 nM | 0.93 nM | 19 nM |
| Cn1c(C(C)(C)C)c/c(=N\C(=O)c2cc(C(F)(F)F)ccc2OCCC2=CCCC2)n1C[C@H]1CCCO1 [Example 53, N-{(3E)-5-tert-butyl-1-methyl-2-[(2R)-tetrahydrofuran-2-ylmethyl]-1,2-dihydro-3H-pyrazol-3-ylidene}-2-(2-cyclopent-1-en-1-ylethoxy)-5-(trifluoromethyl)benzamide] | 1.5 nM | 1970 nM | 2.7 nM | 2.8 nM | – | – | – | – |
| Cn1c(C(C)(C)C)c/c(=N\C(=O)c2cc(C(F)(F)F)ccc2OCCS(C)(=O)=O)n1C[C@H]1CCCO1 [Example 56] | 66 nM | 2780 nM | 0.93 nM | 28 nM | – | – | – | – |
| CSCCOc1ccc(C(F)(F)F)cc1C(=O)/N=c1\cc(C(C)(C)C)n(C)n1C[C@H]1CCCO1 [Example 57] | 11 nM | 7530 nM | 1.4 nM | 1.9 nM | – | – | – | – |
| CSCCCOc1ccc(C(F)(F)F)cc1C(=O)/N=c1\cc(C(C)(C)C)n(C)n1C[C@H]1CCCO1 [Example 58] | 3.9 nM | > 27000 nM | 0.7 nM | 5.1 nM | – | – | – | – |
| Cn1c(C(C)(C)C)c/c(=N\C(=O)c2cc(C(F)(F)F)ccc2OCCCS(C)(=O)=O)n1C[C@H]1CCCO1 [Example 60, N-{(3E)-5-tert-butyl-1-methyl-2-[(2R)-tetrahydrofuran-2-ylmethyl]-1,2-dihydro-3 H-pyrazol-3-ylidene}-2-[3-(methylsulfonyl)propoxy]-5-(trifluoromethyl)benzamide] | 92 nM | > 27000 nM | 0.26 nM | 42 nM | – | – | – | – |
